Experimental findings from US20040253278A1, “Breath Freshening and Oral Cleansing Product Using Carvacrol” (priority 2002, published 2004) are described below.

Assay type in all cases: cell-based
Experiment [1] concerns Fusobacterium nucleatum. The experiment can be described thus: MIC (minimum inhibitory concentration), 96 well microtiter serial dilution. The note with it: 48 h. The procedure:
(§1) In vitro tests were conducted with a gram positive supragingival plaque bacterium, Streptococcus mutans. In addition, two subgingival plaque bacteria associated with oral malodor were tested, Porphyromonas gingivalis and Fusobacterium nucleatum. The MIC (Minimum Inhibitory Concentrations) study protocol is as follows. Chlorhexidine was used as a positive control and sterile water was used as a negative control. Carvacrol was suspended in 10% methanol with 3.8% Tween 80. […] 96 well microtiter plates were used for this study. Each well contained 5×10^5 colony forming units/ml of bacteria, serially diluted agents and bacterial growth medium. All bacterial cultures were incubated at 37° C. and stationary. Bacterial growth was estimated spectrophotometrically at 660 nm, after 48 hours. The MIC for each test bacteria was defined as the minimum concentration of test compound limiting turbidity to […].

Experiment [2] concerns Porphyromonas gingivalis. The description is as above. The note with it: 48 h. As for the experimental part:
as §1

Experiment [3] relates to Streptococcus mutans. Described as above. Conditions: 48 h. As for the experimental part:
as §1

The test system of experiment [4] is Fusobacterium nucleatum. The experiment can be described thus: MBC (minimum bactericidal concentration), plating on blood agar. The note with it: 48 h. The procedure: (§2) The MBC (Minimum bactericidal concentrations) were determined using the 96 well microtiter plate serial dilutions as described above for MIC studies. Serial dilution of cultures in wells showing no visible growth were performed and 10 microliters of culture were plated in triplicate on blood agar plates. Viable colonies were scored after incubation of the plates for 48 hours at 37° C. For each test bacterium, the number of CFU/ml were determined in the initial inoculum. The MBC was defined as the lowest concentration of a test compound that killed at least 99.9% of the cells present in the initial inoculum.

Experiment [5] deals with Porphyromonas gingivalis. The experiment is described as above. Conditions: 48 h. The procedure: as §2
The subject of experiment [6] is Streptococcus mutans. The description is as above. Conditions: 48 h. The procedure:
as §2

Experiment [7] concerns both bacteria. Put plainly: MIC of positive control, bacteria not named. The note with it: "for both bacteria". As for the experimental part: as §1
Experiment [8] has as its system both bacteria. Put plainly: MBC of positive control, bacteria not named. The procedure: as §2

≈ marks a conversion by molar mass, not a printed value.

Usually MIC stands for the smallest concentration in the dilution series that meets the test's criterion for growth inhibition. The MBC is the lowest tested concentration that kills the bacteria rather than only halting them. On to `Cc1ccc(C(C)C)cc1O` [carvacrol], for which the values for the MIC in experiment [1], in experiment [2] and in experiment [3] were 125 µg/mL (≈ 832 µM), 125 µg/mL (≈ 832 µM) and 250 µg/mL (≈ 1660 µM), respectively. Moreover, the MBC in experiment [4], in experiment [5] and in experiment [6] was 125 µg/mL (≈ 832 µM) throughout.

Turning to `[H]/N=C(\N/C(=N/[H])NCCCCCCNC(=N)NC(=N)Nc1ccc(Cl)cc1)Nc1ccc(Cl)cc1` [Cholorhexidine, Chlorhexidine], in experiment [7], the MIC turned out to be 1.25 µg/mL. Moreover, the minimum bactericidal concentration (MBC) in experiment [8] was determined as 1.25 µg/mL.
